Among the data in PubChem BioAssay (NCI) are TGI and GI50 values, retold here.

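In this assay, cells in 96-well plates receive the compound at five concentrations for 48 hours. Endpoints are linearly interpolated between the surrounding concentrations. GI50 is the concentration that inhibits growth by half. TGI is the concentration that stops growth completely.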

Holding throughout (assay): inhibition of tumour cell growth, NCI panel, 48 h
Test [1] deals with COLO 205 colon.
In test [2] the test system is HT29 colon.
In test [3] the test system is K-562 leukemia.
Test [4] has as its system MOLT-4 leukemia.
For test [5], the system named is OVCAR-5 ovarian.
Test [6] relates to RPMI-8226 leukemia.
Test [7] has as its system SF-268 CNS.
For test [8], the system named is SR leukemia.
In test [9] the test system is UO-31 renal.
The test system of test [10] is OVCAR-4 ovarian.

As to `COc1ccc2c(C(=O)O)cc3ccccc3c2c1OC`, the TGI in [1] was 44.2 µM; in test [2], 48.9 µM; in test [3], 80.6 µM; in [4] it was more than 100 µM; in test [5], 38.7 µM; in test [6] it was more than 100 µM. The TGI in [7] is 41.4 µM; in test [8], more than 100 µM; in test [9], 30.9 µM.
For the molecule `COc1ccc2ccccc2c1C1=NC(C)(C)CO1`, the TGI in [1], in test [2], in test [3], in [4], in test [10] and in test [6] was more than 100 µM each time. Further, the TGI in test [7], in test [8] and in test [9] was more than 100 µM each time.
Regarding `O=C(c1cccs1)c1c(C(F)(F)F)n([O-])c2cc(Cl)c(Cl)cc2[n+]1=O`, the GI50 in test [1] is 2 µM; in test [2], 0.405 µM; in test [3], 0.344 µM; in [10] it was 1.97 µM; in [5], 1.77 µM; in test [7] it was 1.03 µM. Besides, the GI50 in test [8] is less than 0.0214 µM; in [9] it was 1.9 µM. For the same molecule, the TGI in [1] is 4.13 µM; in test [2], more than 100 µM; in [3], 17.4 µM; in [4], more than 100 µM; in test [10] it was 4.25 µM; in test [5], 3.16 µM. In addition, the results for the TGI in test [7] and in test [9] were 2.45 µM and 4.14 µM, respectively.
As for `C=C(CN1CCc2[nH]c3ccc(F)cc3c2C1)c1ccc(C(=O)Nc2ccccc2N)cc1`, the GI50 in test [1] is 2.37 µM; in [2], 1.8 µM; in test [3] it was 1.06 µM; in test [4] it was 1.92 µM; in test [5], 4.32 µM; in test [6], 2.48 µM. For the same molecule, the GI50 in [7] is 3.03 µM; in test [8] it was 0.795 µM; in [9], 0.997 µM. Besides, the TGI in [1] is 6.66 µM; in [2], 31.6 µM; in test [3], 14.6 µM; in test [4], 6.56 µM; in test [5], 20.6 µM; in test [6] it was more than 100 µM. In addition, the TGI in test [7] came to 8.36 µM; in test [8] it was 20.1 µM; in test [9] it was 4.14 µM.
As for `O=C1CC(c2ccc(Cl)cc2)=Nc2ccccc2N1`, the TGI in test [1], in [2], in [3], in test [4], in [10] and in [5] was more than 100 µM in each case. Moreover, the TGI in test [7], in [8] and in test [9] was more than 100 µM each time.
Take `O=C1N[C@@H]2CCCC[C@@H]2C12CCCCC2`: the TGI in test [2], in test [3], in [4], in test [10], in [5] and in test [6] was more than 100 µM throughout. Besides, the TGI in test [7], in test [8] and in test [9] was more than 100 µM each time.
As to `COc1cc(/C=C/c2csnn2)cc(OC)c1OC`, the TGI in [2], in [3], in test [4], in test [10], in test [5] and in [6] was more than 100 µM in each case. Further, the TGI in test [7], in [8] and in test [9] was more than 100 µM in each case.
Turning to `COCCOC1=C(Cl)C(=O)c2ccccc2C1=O`, the GI50 was 3.63 µM in test [1]; 7.06 µM in [2]; 1.81 µM in test [4]; 2.17 µM in test [10]; 3.22 µM in [5]; 2.31 µM in [6]. Besides, the GI50 in test [7] was 2.24 µM; in test [8], 3.17 µM; in test [9], 3.07 µM. The TGI in test [1] is 12.2 µM; in test [2], 25.5 µM; in test [4], 42 µM; in test [10], 4.68 µM; in test [5] it was 9.52 µM; in test [6] it was 6.75 µM. In addition, the TGI in test [7] was found to be 9.32 µM; in test [8] it was 9.48 µM; in [9] it was 16 µM.
On to `Cc1ccc(NC(=O)c2cc(S(=O)(=O)Nc3nnc(-c4ccccc4)c(-c4ccccc4)n3)c(SCc3ccccc3)cc2Cl)cc1`, for which the GI50 in [1] was 25 µM; in test [3], 23.8 µM; in test [4] it was more than 100 µM; in test [10] it was 25.7 µM; in test [5] it was 19.4 µM; in [6] it was 11.8 µM. Moreover, the GI50 is 20.2 µM in test [7], 36 µM in [8] and 25.3 µM in test [9]. Further, the TGI in [1] was 55.6 µM; in test [3] it was more than 100 µM; in [4], more than 100 µM; in test [10] it was 92.2 µM; in [5], 33.8 µM; in test [6] it was 44.8 µM. Also, the figures for the TGI in [7], in test [8] and in test [9] were 84.5 µM, more than 100 µM and 63.9 µM, respectively.
Regarding `COCCN(CCOC)c1nc(-c2ccccc2)nc2ccccc12`, the GI50 in [1] was 28.2 µM; in test [3] it was 36.1 µM; in [4] it was 28.3 µM; in test [10], 44.8 µM; in test [5], 21.9 µM; in test [6] it was 7.03 µM. The GI50 is 19.7 µM in test [7], 34.4 µM in test [8] and 28.1 µM in test [9]. For the same molecule, the TGI in test [1] was more than 100 µM; in test [3] it was more than 100 µM; in [4], more than 100 µM; in test [10], more than 100 µM; in test [5] it was 46.3 µM; in test [6], 36 µM. The TGI in test [7] is 62.4 µM; in test [8], more than 100 µM; in test [9] it was more than 100 µM.
With `C[C@H](C(=O)O)C(=O)NC(=O)N(Cc1ccccc1)N=O`, the TGI in [1], in test [2], in [3], in [4], in test [10] and in test [5] was more than 100 µM throughout. The TGI in test [6], in test [7] and in [9] was more than 100 µM in each case.
